Data on 53 molecules can be found in the Deep4Chem optical property database.

The data set is described as follows: solvent given as SMILES.
The mark [1] stands for this setting: in c1cc(-n2c3ccccc3c3ccccc32)cc(-n2c3ccccc3c3ccccc32)c1.

With `NCCc1c[nH]c2ccc(O)cc12`, the fluorescence lifetime runs as follows: (in CC#N) 4.1 ns; (in CC(C)O) 4.28 ns; (in CO) 4.04 ns; (in O) 3.94 ns.

Regarding `O=C1NC(=O)c2ccc(N3CCCCC3)c3cccc1c23`, the fluorescence lifetime came out at 7.02 ns (in C1CCOC1), 8.86 ns (in ClC(Cl)Cl) and 7.02 ns (in ClCCl).

On to `C[Si](C)(C)c1ccc2ccc3cccc4ccc1c2c34`, for which the fluorescence lifetime by setting is: (in CCCCCC) 66.9 ns; (in CO) 175 ns; (in ClCCl) 94.2 ns.

With `CN(C)c1ccc(C#Cc2ccc(-c3nc(C#N)c(C#N)n3C)cc2)cc1`, the fluorescence lifetime stood at 1.2 ns (in C1CCCCC1) and 1.7 ns (in ClC(Cl)Cl).

With `N#Cc1c(-n2c3ccccc3c3ccccc32)cccc1-n1c2ccccc2c2ccccc21`, the fluorescence lifetime (in Cc1ccccc1) turned out to be 2.6 ns and the fluorescence lifetime (in O=P(c1ccccc1)(c1ccccc1)c1ccccc1Oc1ccccc1P(=O)(c1ccccc1)c1ccccc1) was found to be 4 ns.

With `CCC1=C(C)C2=Cc3cc(I)c(I)n3[B-](F)(F)[N+]2=C1C`, the fluorescence lifetime reads like this: (in C1CCCCC1) 1.04 ns; (in CC(C)=O) 0.753 ns; (in CCO) 0.943 ns; (in CCOC(C)=O) 0.836 ns; (in CO) 0.848 ns; (in OCC(F)(F)F) 0.676 ns.

`CCCCn1c(-c2ccc(-c3nnc(-c4ccc5ccccc5c4)o3)cc2)nc(-c2ccccc2)c1-c1ccccc1` returned a fluorescence lifetime (in ClCCl) of 1.74 ns.

Under “in C1CCCCC1”, `c1cc2cccc3c4cccc5cccc(c(c1)c23)c54` came in with a fluorescence lifetime of 4.7 ns.

For `Fc1c(-n2c3ccccc3c3ccccc32)c(F)c(-n2c3ccccc3c3ccccc32)c(-c2nnc(-c3ccccc3)o2)c1-n1c2ccccc2c2ccccc21`, the fluorescence lifetime (in Cc1ccccc1) was 3.9 ns.

Turning to `COc1ccc(N(c2ccccc2)c2ccccc2)cc1`, under “in Cc1ccccc1”, the fluorescence lifetime was 1.89 ns.

For the molecule `CC(C)(C)NC(=O)c1cccc2ccc3c4ccccc4c4ccccc4c3c12`, the fluorescence lifetime (in ClCCl) was found to be 1.74 ns.

With `N#Cc1c(-n2c3ccc(-c4ccccc4)cc3c3cc(-c4ccccc4)ccc32)c(-n2c3ccccc3c3ccccc32)c(-n2c3ccc(-c4ccccc4)cc3c3cc(-c4ccccc4)ccc32)c(-n2c3ccccc3c3ccccc32)c1-n1c2ccc(-c3ccccc3)cc2c2cc(-c3ccccc3)ccc21`, where the note is “in Cc1ccccc1”, the fluorescence lifetime amounted to 5.2 ns.

For the molecule `COc1ccc(-c2c3ccccc3c(-c3ccc(OC)cc3)c3ccccc23)cc1`, where the note is “in ClCCl”, the fluorescence lifetime is 4.4 ns.

As to `CC[N+](CC)=c1ccc2c(-c3ccccc3C(=O)O)c3c(=O)oc4c5c6c(cc4c3oc-2c1)CCCN6CCC5`, the fluorescence lifetime was 0.47 ns (in CCO), 2.87 ns (in ClC(Cl)Cl) and 0.16 ns (in O).

For the molecule `CSc1sc(C(N)=O)c2nnn(C)c(=O)c12`, the fluorescence lifetime was 19 ns (in C1CCOC1); 21 ns (in CC#N); 14 ns (in CCO); 15 ns (in CN(C)C=O); 11 ns (in CO); 5.4 ns (in CS(C)=O).

Regarding `N#CC(C#N)=C(c1ccc(-n2ccc3ccccc32)cc1)c1ccc(-n2ccc3ccccc32)cc1`, the fluorescence lifetime (in Cc1ccccc1) came out at 5.2 ns.

For the setting “in ClCCl”, `Oc1ccc2ccccc2c1-c1nc2c(c3c1-c1ccccc1CC3)-c1ccccc1CC2` yielded a fluorescence lifetime of 0.97 ns.

For the molecule `C(=C\c1cc(/C=C/c2ccc(-n3c4ccccc4c4ccccc43)cc2)cc(/C=C/c2ccc(-n3c4ccccc4c4ccccc43)cc2)c1)/c1ccc(-n2c3ccccc3c3ccccc32)cc1`, the fluorescence lifetime runs as follows: (in C1CCOC1) 4.56 ns; (in CC#N) 3.84 ns; (in Cc1ccccc1) 3.41 ns; (in ClCCl) 3.39 ns.

For the molecule `O=C(c1ccc(N2c3ccccc3Oc3ccccc32)cc1)c1ccc(N2c3ccccc3Oc3ccccc32)cc1`, the fluorescence lifetime under setting [1] is 23 ns.

Where the note is “in ClCCl”, `CC(C)c1cccc(C(C)C)c1N1C(=O)c2cccc3c(Oc4ccc(C(C)(C)C)cc4)ccc(c23)C1=O` showed a fluorescence lifetime of 1.12 ns.

As for `COc1ccc(-c2csc(/C(C#N)=C/c3ccncc3)n2)cc1`, the fluorescence lifetime (in CC#N) turned out to be 1.92 ns.

Consider `Cc1ccc(-c2ccc(/C=C/c3ccc(N(C)C)cc3)cn2)nc1`, for which the fluorescence lifetime (in CC#N) was determined as 1.22 ns.

Molecule `CN(C)c1ccc(C2=Cc3c4ccccc4cc[n+]3[B-](F)(F)O2)cc1` returned a fluorescence lifetime (in ClC(Cl)Cl) of 2.34 ns.

Turning to `COc1cc(C#Cc2ccccc2)c(C#Cc2ccccc2)cc1OC`, the fluorescence lifetime (in CC#N) amounted to 2.1 ns.

As to `CCn1c(=O)nc2n(C)c3cc(C)ccc3nc-2c1=O`, the fluorescence lifetime by setting is: (in CC#N) 7 ns; (in CO) 6.3 ns; (in ClCCCl) 6.5 ns.

Molecule `Nc1cccc[nH+]1` had a fluorescence lifetime (in O) of 11.2 ns.

For the setting “in ClCCl”, `CCCCCCCCCCCCN1C(=O)c2c(c3ccc4cc(-c5ccc(C(F)(F)F)cc5)c(OC)cc4c3c3c2ccc2cc(-c4ccc(C(F)(F)F)cc4)c(OC)cc23)C1=O` registered a fluorescence lifetime of 6.39 ns.

In turn, `N#CC1=c2c3cccc4cccc(c43)n2[B-](F)(F)[n+]2ccccc21` yielded a fluorescence lifetime (in ClCCl) of 8.7 ns.

For the molecule `Cc1c(OCC(=O)O)cc2c3c([nH]c2c1C)C(=O)CCC3`, the fluorescence lifetime is 0.54 ns (in C1COCCO1); 0.97 ns (in CC#N); 1.52 ns (in CCO); 2.34 ns (in CS(C)=O); 0.52 ns (in Cc1ccccc1); 1.77 ns (in O).

As for `O=C(O)c1ccc(-c2nc(-c3ccccc3)c3ccccn23)cc1`, for the setting “in CC#N”, the fluorescence lifetime turned out to be 1.5 ns.

For the molecule `CC1(C)c2ccccc2N(c2ccc(S(=O)(=O)c3ccc(N4c5ccccc5C(C)(C)c5ccccc54)cc3)cc2)c2ccccc21`, the fluorescence lifetime amounted to 21 ns (in C1COCCO1); 20 ns (in CC(C)=O); 20 ns (in Cc1ccccc1); 21 ns (in ClC(Cl)Cl); 21 ns under setting [1].

Regarding `CC(C)(C)OC(=O)n1ccc2c3ccc4cccc5ccc(cc21)c3c54`, the fluorescence lifetime (in CCOC(C)=O) was determined as 8.29 ns.

For `CC1(C)C(/C=C/C2=C(Oc3ccc(CCN=C=S)cc3F)C(=C/C=C3/N(CCCS(=O)(=O)[O-])c4ccccc4C3(C)C)/CCC2)=[N+](CCCS(=O)(=O)[O-])c2ccccc21`, under “in CO”, the fluorescence lifetime is 0.843 ns.

`COc1cc(N(CC(=O)[O-])CC(=O)[O-])c2ncccc2c1` showed a fluorescence lifetime (in O) of 0.84 ns.

As to `Cn1nc(-c2ccccc2)c2n[nH]nc2/c1=N\c1ccccn1`, the fluorescence lifetime (in CC#N) turned out to be 0.33 ns, the fluorescence lifetime (in CCO) was found to be 0.44 ns and the fluorescence lifetime (in Cc1ccccc1) worked out at 0.34 ns.

As to `CCOC(=O)c1ccccc1-c1c2ccc(=O)cc-2oc2cc(OC(=O)[C@H](CSCc3ccc(C)cc3)NC(=O)OC(C)(C)C)ccc12`, the fluorescence lifetime reads like this: (in C1CCOC1) 2.49 ns; (in CC#N) 2.97 ns; (in CCO) 3.29 ns; (in CS(C)=O) 4.06 ns.

`C[N+]1=c2ccc3c(c2C(C)(C)CC1)Oc1cc2c(cc1C=3c1ccccc1C(=O)O)C(c1ccccc1C(=O)O)=c1ccc3c(c1O2)C(C)(C)CC[N+]=3C` returned a fluorescence lifetime (in ClC(Cl)Cl) of 2.48 ns.

Take `c1ccc2c(c1)[nH]c1ccccc12`: the fluorescence lifetime reads like this: (in CC#N) 15.1 ns; (in CCCCCC) 14.2 ns; (in CCO) 16.1 ns.

In the case of `[O-]c1ccc2ccccc2c1`, the fluorescence lifetime (in O) is 9.43 ns.

Turning to `CCC(=O)c1ccc2cc(N(C)C)ccc2c1`, the fluorescence lifetime (in C1CCCCC1) was found to be 1.6 ns; the fluorescence lifetime (in C1CCOC1) stood at 3.58 ns; the fluorescence lifetime (in CC#N) worked out at 3.96 ns; the fluorescence lifetime (in CCCCCC) was 0.29 ns; the fluorescence lifetime (in CCO) came out at 3.65 ns; the fluorescence lifetime (in CN(C)C=O) turned out to be 3.85 ns. Moreover, the fluorescence lifetime amounted to 3.04 ns (in CO); 3.12 ns (in CS(C)=O); 2.33 ns (in Cc1ccccc1); 3.09 ns (in ClC(Cl)Cl); 3.44 ns (in ClCCl); 2.1 ns (in O). The fluorescence lifetime was determined as 3.8 ns (in OCC(O)CO) and 3.3 ns (in c1ccccc1).

Molecule `COC(=O)CC1(C(=O)O)Oc2c(c(C(C)=O)c3c(c2C(C)=O)OCO3)O1` yielded a fluorescence lifetime (in CC#N) of 20 ns.

For the setting “in c1cc(-c2cccc(-n3c4ccccc4c4ccccc43)c2)cc(-n2c3ccccc3c3ccccc32)c1”, `CC1(C)c2ccccc2N(c2ccc(-c3cc(C#N)c(C#N)cc3-c3ccc(N4c5ccccc5C(C)(C)c5ccccc54)cc3)cc2)c2ccccc21` displayed a fluorescence lifetime of 35 ns.

For the molecule `O=C(O)c1c2ccccc2c(C(=O)O)c2ccccc12`, the fluorescence lifetime runs as follows: (in C1CCOC1) 8.8 ns; (in CN(C)C=O) 5.7 ns.

For the setting “in ClC(Cl)Cl”, `CC1=CC(C)=[N+]2C1=C(c1ccc(I)cc1)c1c(C)cc(C)n1[B-]2(OCc1ccccc1)OCc1ccccc1` gave a fluorescence lifetime of 3.94 ns.

Turning to `COc1ccsc1-c1ccc(-c2ccc(-c3sccc3OC)s2)s1`, the fluorescence lifetime (in CCC(C)C) amounted to 0.61 ns.

In the case of `Nc1ccc(N2C(=O)c3ccc4c5ccc6c7c(ccc(c8ccc(c3c48)C2=O)c75)C(=O)N(c2ccc(N)cc2)C6=O)cc1`, under “in CN(C)C=O”, the fluorescence lifetime was 3.8 ns.

As to `O=C(O)CCCCCn1c2ccc(Br)cc2c(=O)c2cc(Br)ccc21`, under “in O”, the fluorescence lifetime was 6 ns.

For the molecule `CCCCCCN1C(=O)c2cccc3c(-c4ccc(-c5ccc(-c6ccc7c8c(cccc68)C(=O)N(CCCCCC)C7=O)s5)s4)ccc(c23)C1=O`, the fluorescence lifetime (in ClC(Cl)Cl) was determined as 0.535 ns.

Turning to `CCOC(=O)c1ccc(C2=Cc3cc4ccccc4cc3P2(=O)c2ccccc2)cc1` (stereo not given), the fluorescence lifetime (in ClCCl) was 2.8 ns.

For `Fc1ccc(-c2ccc(-c3cc(-c4ccccn4)nc(-c4ccccn4)c3)cc2)c(F)c1`, the fluorescence lifetime (in ClCCl) is 1.77 ns.

On to `CC1=[N+]2C(=C(c3ccc(N(c4ccccc4)c4ccccc4)cc3)c3ccc(C)n3[B-]2(F)F)C=C1c1cc2n(c1)[B-](F)(F)[N+]1=CC=CC1=C2c1c(C)cc(C)cc1C`, for which the fluorescence lifetime came to 2.6 ns (in C1CCCCC1) and 0.72 ns (in CCOC(C)=O).

`COc1ccc(/N=N/c2c(O)c3ccccc3n(C)c2=O)c(S(=O)(=O)O)c1` gave a fluorescence lifetime (in CS(C)=O) of 0.04 ns.

As for `O=S(=O)([O-])c1cc(S(=O)(=O)Cl)ccc1C1=c2cc3c4c(c2Oc2c1cc1c5c2CCCN5CCC1)CCC[N+]=4CCC3`, the fluorescence lifetime (in O) was 4.2 ns.
